Results reported in ChEMBL document CHEMBL4152300, “Discovery of the selective and efficacious inhibitors of FLT3 mutations” (Eur J Med Chem, 2018).

Tests used:
[1] = target: T1, Cyclin-dependent kinase 6 (Homo sapiens, UniProt Q00534); experiment: Inhibition of CDK6 (unknown origin) assessed as residual activity at 0.123 uM by Hotspot assay relative to control
MV4-11 = experiment: Growth inhibition of human MV4-11 cells harboring FLT3-ITD after 72 hrs by Cell-Titer Glo assay; type: functional, cell-based; conditions: MV4-11, 72 h
[2] = target: T2, CDK2 (cyclin-dependent kinase 2) (Homo sapiens, UniProt P24941); experiment: Inhibition of CDK2 (unknown origin) assessed as residual activity at 0.123 uM by Hotspot assay relative to control; conditions: CDK2 enzyme (unknown origin), read-out: Activity
[3] = target: T3, Receptor-type tyrosine-protein kinase FLT3 (Homo sapiens, UniProt P36888)
T3 sequence (P36888 whole entry): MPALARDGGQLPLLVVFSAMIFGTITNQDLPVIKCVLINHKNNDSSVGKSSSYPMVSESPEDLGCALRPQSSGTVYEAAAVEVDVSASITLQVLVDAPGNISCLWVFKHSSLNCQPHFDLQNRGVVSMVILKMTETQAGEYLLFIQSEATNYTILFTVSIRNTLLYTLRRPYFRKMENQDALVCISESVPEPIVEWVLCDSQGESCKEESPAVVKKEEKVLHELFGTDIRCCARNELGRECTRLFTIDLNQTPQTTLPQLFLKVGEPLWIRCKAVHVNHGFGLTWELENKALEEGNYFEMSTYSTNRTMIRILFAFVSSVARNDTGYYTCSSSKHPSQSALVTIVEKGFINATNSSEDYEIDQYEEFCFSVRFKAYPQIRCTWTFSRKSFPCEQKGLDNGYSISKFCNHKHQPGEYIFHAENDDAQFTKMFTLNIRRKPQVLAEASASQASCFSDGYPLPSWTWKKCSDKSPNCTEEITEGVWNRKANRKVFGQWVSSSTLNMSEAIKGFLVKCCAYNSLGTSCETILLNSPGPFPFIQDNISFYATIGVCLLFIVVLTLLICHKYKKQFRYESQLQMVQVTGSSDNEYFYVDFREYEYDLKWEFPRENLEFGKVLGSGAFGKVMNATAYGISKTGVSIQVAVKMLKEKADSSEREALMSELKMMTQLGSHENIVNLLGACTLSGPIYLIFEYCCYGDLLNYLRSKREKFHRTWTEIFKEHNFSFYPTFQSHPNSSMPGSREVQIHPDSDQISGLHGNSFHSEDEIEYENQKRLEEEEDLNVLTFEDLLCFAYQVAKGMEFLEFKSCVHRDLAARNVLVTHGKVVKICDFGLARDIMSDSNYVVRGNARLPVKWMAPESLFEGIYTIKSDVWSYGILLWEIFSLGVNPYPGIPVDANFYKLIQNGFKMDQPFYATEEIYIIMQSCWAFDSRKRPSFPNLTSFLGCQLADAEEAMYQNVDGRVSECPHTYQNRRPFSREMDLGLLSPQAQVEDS
Description: Inhibition of human FLT3 by Hotspot assay

[4] = target: T4, Receptor-type tyrosine-protein kinase FLT3 (Homo sapiens, UniProt P36888); experiment: Inhibition of human FLT3 assessed as residual activity at 0.123 uM by Hotspot assay relative to control
[5] = target: T2, CDK2 (cyclin-dependent kinase 2); experiment: Inhibition of CDK2 (unknown origin) at 0.123 uM by Hotspot assay relative to control; conditions: CDK2 enzyme (unknown origin)
[6] = target: Cyclin-dependent kinase 2 (Homo sapiens, UniProt P24941); experiment: Inhibition of CDK2 (unknown origin) by Hotspot assay
[7] = target: T1, Cyclin-dependent kinase 6; experiment: Inhibition of CDK6 (unknown origin) by Hotspot assay
[8] = target: T1, Cyclin-dependent kinase 6; experiment: Inhibition of CDK6 (unknown origin) at 0.123 uM by Hotspot assay relative to control
Homo sapiens [9] = species on record: Homo sapiens; experiment: Selectivity ratio of IC50 for CDK2 (unknown origin) to IC50 for human FLT3
Homo sapiens [10] = species on record: Homo sapiens; experiment: Selectivity ratio of IC50 for CDK6 (unknown origin) to IC50 for human FLT3
[11] = Drug uptake in human liver microsomes up to 60 mins by LC-MS/MS analysis; type: ADME, microsome; conditions: 1 h
[12] = target: Cyclin-dependent kinase 4/cyclin D1 (Homo sapiens, UniProt P11802); experiment: Inhibition of human CDK4/Cyclin-D1 at 0.123 uM by Hotspot assay; type: protein-complex assay
K562 = experiment: Growth inhibition of FLT3 null human K562 cells after 72 hrs by Cell-Titer Glo assay; type: functional, cell-based; conditions: K562, 72 h
[13] = target: T4, Receptor-type tyrosine-protein kinase FLT3; experiment: Inhibition of human FLT3 F594_R595insR mutant by Hotspot assay
[14] = target: T5, Receptor-type tyrosine-protein kinase FLT3 (Homo sapiens, UniProt P36888, ITD); experiment: Inhibition of human FLT3 ITD-W51 mutant by Hotspot assay
[15] = target: Vascular endothelial growth factor receptor 3 (Homo sapiens, UniProt P35916); experiment: Inhibition of human FLT4 by Hotspot assay
[16] = target: T4, Receptor-type tyrosine-protein kinase FLT3; experiment: Inhibition of human FLT3 Y591-V592 mutant by Hotspot assay
[17] = target: Receptor-type tyrosine-protein kinase FLT3 (Homo sapiens, UniProt P36888, D835V/ITD); experiment: Binding affinity to human FLT3 ITD/D835V double mutant expressed in bacterial expression system by Kinomescan method
MOLM-13 = experiment: Growth inhibition of human MOLM13 cells harboring FLT3-ITD after 72 hrs by Cell-Titer Glo assay; type: functional, cell-based; conditions: MOLM-13, 72 h
[18] = target: Mitogen-activated protein kinase 15 (Homo sapiens, UniProt Q8TD08); experiment: Inhibition of human ERK7 at 0.123 uM by Hotspot assay
HL-60 = experiment: Growth inhibition of human HL60 cells expressing low levels of FLT3 after 72 hrs by Cell-Titer Glo assay; type: functional, cell-based; conditions: HL-60, 72 h
[19] = target: T5, Receptor-type tyrosine-protein kinase FLT3; experiment: Inhibition of human FLT3 ITD-NPOS mutant by Hotspot assay
[20] = target: T4, Receptor-type tyrosine-protein kinase FLT3; experiment: Inhibition of human FLT3 R595_E596 mutant by Hotspot assay
[21] = Half life in human liver microsomes preincubated for 5 mins followed by NADPH addition by LC-MS/MS analysis; type: ADME, microsome
[22] = target: T6, Receptor-type tyrosine-protein kinase FLT3 (Homo sapiens, UniProt P36888, D835Y); experiment: Inhibition of human FLT3 D835Y mutant by Hotspot assay
[23] = target: Receptor-type tyrosine-protein kinase FLT3 (Homo sapiens, UniProt P36888, F691L/ITD); experiment: Binding affinity to human FLT3 ITD/F691L double mutant expressed in bacterial expression system by Kinomescan method
CDK2/Cyclin A2 = CDK2/Cyclin A2 (Homo sapiens, UniProt P24941); experiment: Inhibition of human CDK2/Cyclin-A at 0.123 uM by Hotspot assay; type: protein-complex assay
[24] = target: T4, Receptor-type tyrosine-protein kinase FLT3; experiment: Inhibition of human FLT3 F594_R595insREY mutant by Hotspot assay
CDK6/cyclin D1 = CDK6/cyclin D1 (Homo sapiens, UniProt Q00534); experiment: Inhibition of human CDK6/Cyclin-D1 at 0.123 uM by Hotspot assay; type: protein-complex assay
[25] = target: T6, Receptor-type tyrosine-protein kinase FLT3; experiment: Binding affinity to human FLT3 D835Y mutant (Q580 to Y969 residues) expressed in bacterial expression system by Kinomescan method
[26] = Intrinsic clearance in human liver microsomes preincubated for 5 mins followed by NADPH addition by LC-MS/MS analysis; type: ADME, microsome; conditions: read-out: CLH

T1 sequence (Q00534 whole entry): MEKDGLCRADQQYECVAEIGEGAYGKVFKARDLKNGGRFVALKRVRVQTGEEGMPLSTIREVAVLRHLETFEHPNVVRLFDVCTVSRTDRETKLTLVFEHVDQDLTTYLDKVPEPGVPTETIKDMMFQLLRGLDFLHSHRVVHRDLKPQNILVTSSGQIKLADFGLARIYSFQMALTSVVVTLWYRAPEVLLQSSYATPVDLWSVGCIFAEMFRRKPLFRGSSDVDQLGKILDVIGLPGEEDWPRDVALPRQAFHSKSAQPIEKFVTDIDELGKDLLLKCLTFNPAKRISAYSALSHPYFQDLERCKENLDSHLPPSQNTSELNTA
Sequence of CDK6/cyclin D1 (P24385 whole entry, the tested form may be a part): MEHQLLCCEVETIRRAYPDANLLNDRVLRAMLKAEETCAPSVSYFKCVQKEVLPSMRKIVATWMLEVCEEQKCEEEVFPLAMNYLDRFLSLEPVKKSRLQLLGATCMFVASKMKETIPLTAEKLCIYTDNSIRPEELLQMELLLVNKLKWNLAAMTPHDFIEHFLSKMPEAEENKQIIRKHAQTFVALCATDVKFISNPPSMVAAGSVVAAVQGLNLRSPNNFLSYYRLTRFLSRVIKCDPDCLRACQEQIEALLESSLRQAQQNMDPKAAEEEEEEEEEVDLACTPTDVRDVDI
Sequence of CDK6/cyclin D1 (Q00534 whole entry, the tested form may be a part): as the sequence (Q00534 whole entry) above
Sequence of Vascular endothelial growth factor receptor 3 (P35916 whole entry): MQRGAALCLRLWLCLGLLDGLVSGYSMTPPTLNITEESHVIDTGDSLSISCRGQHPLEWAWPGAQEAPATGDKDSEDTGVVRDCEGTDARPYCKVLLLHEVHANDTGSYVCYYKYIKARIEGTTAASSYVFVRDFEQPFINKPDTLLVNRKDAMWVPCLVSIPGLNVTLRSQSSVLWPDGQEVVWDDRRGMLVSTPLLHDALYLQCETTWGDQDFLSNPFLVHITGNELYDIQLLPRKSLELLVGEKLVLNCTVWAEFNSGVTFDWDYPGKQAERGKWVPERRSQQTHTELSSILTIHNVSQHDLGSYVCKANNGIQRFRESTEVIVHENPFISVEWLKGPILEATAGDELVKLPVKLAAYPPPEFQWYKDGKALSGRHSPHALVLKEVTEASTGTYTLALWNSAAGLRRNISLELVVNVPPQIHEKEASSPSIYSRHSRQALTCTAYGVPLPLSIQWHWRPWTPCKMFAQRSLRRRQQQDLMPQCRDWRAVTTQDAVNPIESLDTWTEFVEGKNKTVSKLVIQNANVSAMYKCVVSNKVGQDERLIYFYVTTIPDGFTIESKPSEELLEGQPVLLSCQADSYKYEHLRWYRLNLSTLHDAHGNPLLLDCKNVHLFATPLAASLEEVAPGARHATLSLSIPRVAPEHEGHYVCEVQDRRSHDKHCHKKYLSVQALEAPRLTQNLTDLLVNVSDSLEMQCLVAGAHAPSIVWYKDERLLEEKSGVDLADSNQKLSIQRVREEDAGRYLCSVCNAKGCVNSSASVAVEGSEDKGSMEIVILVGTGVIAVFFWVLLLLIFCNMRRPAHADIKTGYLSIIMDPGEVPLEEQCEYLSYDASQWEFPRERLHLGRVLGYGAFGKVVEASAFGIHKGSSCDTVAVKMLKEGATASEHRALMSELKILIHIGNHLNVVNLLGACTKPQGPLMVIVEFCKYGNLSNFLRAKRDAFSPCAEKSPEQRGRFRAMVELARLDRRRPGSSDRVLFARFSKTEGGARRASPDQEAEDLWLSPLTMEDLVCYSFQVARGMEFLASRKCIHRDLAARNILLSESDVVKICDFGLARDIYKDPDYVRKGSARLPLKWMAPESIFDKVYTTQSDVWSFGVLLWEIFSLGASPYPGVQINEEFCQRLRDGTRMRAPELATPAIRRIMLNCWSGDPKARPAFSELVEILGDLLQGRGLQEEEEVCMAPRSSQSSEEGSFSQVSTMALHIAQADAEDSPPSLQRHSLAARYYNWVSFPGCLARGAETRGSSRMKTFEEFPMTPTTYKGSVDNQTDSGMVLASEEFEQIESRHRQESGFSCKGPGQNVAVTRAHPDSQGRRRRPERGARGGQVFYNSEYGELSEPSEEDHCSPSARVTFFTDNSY
Sequence of Cyclin-dependent kinase 4/cyclin D1 (P11802 whole entry): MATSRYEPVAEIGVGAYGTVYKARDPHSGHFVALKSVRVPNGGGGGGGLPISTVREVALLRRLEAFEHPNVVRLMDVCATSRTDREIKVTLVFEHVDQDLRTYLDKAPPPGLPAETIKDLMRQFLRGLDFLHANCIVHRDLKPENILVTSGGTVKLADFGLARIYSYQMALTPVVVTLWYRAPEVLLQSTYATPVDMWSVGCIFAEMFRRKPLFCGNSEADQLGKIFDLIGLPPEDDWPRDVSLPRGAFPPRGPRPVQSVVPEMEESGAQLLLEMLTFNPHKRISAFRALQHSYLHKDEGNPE
Sequence of Cyclin-dependent kinase 4/cyclin D1 (P24385 whole entry, further chain): as the sequence (P24385 whole entry, the tested form may be a part) above
Sequence of Mitogen-activated protein kinase 15 (Q8TD08 whole entry): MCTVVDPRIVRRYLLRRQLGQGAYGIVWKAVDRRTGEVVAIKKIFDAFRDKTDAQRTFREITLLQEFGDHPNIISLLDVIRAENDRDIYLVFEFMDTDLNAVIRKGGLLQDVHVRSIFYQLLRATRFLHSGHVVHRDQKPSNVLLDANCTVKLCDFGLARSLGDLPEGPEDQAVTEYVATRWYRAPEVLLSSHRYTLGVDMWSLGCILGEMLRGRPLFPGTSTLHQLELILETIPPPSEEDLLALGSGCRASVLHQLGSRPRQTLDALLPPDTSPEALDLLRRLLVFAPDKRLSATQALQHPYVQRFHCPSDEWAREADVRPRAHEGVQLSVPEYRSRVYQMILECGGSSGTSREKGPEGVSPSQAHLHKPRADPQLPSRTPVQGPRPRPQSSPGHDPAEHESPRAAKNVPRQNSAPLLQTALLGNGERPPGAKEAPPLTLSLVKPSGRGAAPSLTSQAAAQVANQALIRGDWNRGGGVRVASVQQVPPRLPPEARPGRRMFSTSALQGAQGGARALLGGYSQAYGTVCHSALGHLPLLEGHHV

## O=C(Nc1ccc(N2CCNCC2)cc1)c1n[nH]cc1Nc1nc(Cl)nc2sccc12
[1]
  Activity: 63.6%
MV4-11
  IC50: 26 nM
[2]
  activity at 0.123 µM: 56.8%
[3]
  IC50: 0.47 nM

## Cc1[nH]nc(C(=O)Nc2ccc(CN3CCN(C)CC3)cc2)c1Nc1ncnc2[nH]ccc12
[1]
  Activity: 95.7%
[2]
  activity at 0.123 µM: 99.9%
[4]
  Activity: 98.5%

## CN1CCN(Cc2ccc(NC(=O)c3n[nH]cc3Nc3nc(C4CC4)nc4sccc34)cc2)CC1
[1]
  Activity: 103%
MV4-11
  IC50: 61 nM
[2]
  activity at 0.123 µM: 89.8%
[3]
  IC50: 15.7 nM

## Cc1nc(Nc2c[nH]nc2C(=O)Nc2ccc(CN3CCOCC3)cc2)c2ccsc2n1
[1]
  Activity: 79.7%
MV4-11
  IC50: 62 nM
[2]
  activity at 0.123 µM: 52%
[3]
  IC50: 3.63 nM

## Cc1nc(Nc2c[nH]nc2C(=O)Nc2ccc(CN3CCOCC3)cc2)c2cc(C(C)C)sc2n1
MV4-11
  IC50: 48 nM
[5]
  inhibition at 0.123 µM: > 80%
[6]
  IC50: 25.4 nM
[7]
  IC50: 33.2 nM
[8]
  inhibition: > 80%
[3]
  IC50: 0.66 nM

## Cc1nc(Nc2c[nH]nc2C(=O)Nc2ccc(N3CCNCC3)cc2)c2ccsc2n1
MV4-11
  IC50: 19 nM
[5]
  inhibition at 0.123 µM: > 80%
[6]
  IC50: 81.5 nM
[7]
  IC50: 84.3 nM
Homo sapiens [9]
  Ratio IC50: 131
[8]
  inhibition: > 80%
Homo sapiens [10]
  Ratio IC50: 131
[3]
  IC50: 0.62 nM

## CN1CCN(Cc2ccc(NC(=O)c3nn(C)cc3Nc3ncnc4[nH]ccc34)cc2)CC1
[1]
  Activity: 99.3%
[2]
  activity at 0.123 µM: 98.5%
[4]
  Activity: 87.6%

## Cc1[nH]nc(C(=O)Nc2ccc(CN3CCN(C)CC3)cc2)c1Nc1ncnc2sccc12
[1]
  Activity: 96.2%
[2]
  activity at 0.123 µM: 99.7%
[4]
  Activity: 98.5%

## Cc1nc2c(c(Nc3c[nH]nc3C(=O)Nc3ccc(N4CCNCC4)cc3)n1)CCCC2
[1]
  Activity: 87.2%
MV4-11
  IC50: 18 nM
[2]
  activity at 0.123 µM: 79.4%
[3]
  IC50: 0.66 nM

## O=C(Nc1ccc(CN2CCOCC2)cc1)c1n[nH]cc1Nc1nc(C2CC2)nc2sccc12
[1]
  Activity: 95.4%
MV4-11
  IC50: 78 nM
[2]
  activity at 0.123 µM: 81.4%
[3]
  IC50: 16.5 nM

## Cc1nc(Nc2c[nH]nc2C(=O)Nc2ccc(N3CCN(C)CC3)cc2)c2ccsc2n1
[1]
  Activity: 72.7%
MV4-11
  IC50: 27 nM
[2]
  activity at 0.123 µM: 71.2%
[3]
  IC50: 0.95 nM

## Cc1nc(Nc2c[nH]nc2C(=O)Nc2ccc(CN3CCN(C)CC3)cc2)c2ccsc2n1
[1]
  Activity: 72.1%
MV4-11
  IC50: 52 nM
[2]
  activity at 0.123 µM: 51.1%
Homo sapiens [9]
  Ratio IC50: 100
Homo sapiens [10]
  Ratio IC50: 100
[3]
  IC50: 0.65 nM

## CC(C)(C)c1nc(Nc2c[nH]nc2C(=O)Nc2ccc(N3CCNCC3)cc2)c2ccsc2n1
[1]
  Activity: 99.2%
MV4-11
  IC50: 98 nM
[2]
  activity at 0.123 µM: 100%
[3]
  IC50: 20.5 nM

## O=C(Nc1ccc(N2CCNCC2)cc1)c1n[nH]cc1Nc1nc(C2CC2)nc2sccc12
[1]
  Activity: 88%
MV4-11
  IC50: 59 nM
[2]
  activity at 0.123 µM: 97.4%
[3]
  IC50: 2.53 nM

## CN1CCN(Cc2ccc(NC(=O)c3n[nH]cc3Nc3ncnc4sccc34)cc2)CC1
[11]
  Drug uptake: 29.7%
MV4-11
  IC50: 16 nM
[12]
  IC50: < 10 nM
K562
  IC50: 235 nM
[13]
  IC50: 1.23 nM
[14]
  IC50: 1.85 nM
[15]
  IC50: 4.5 nM
[16]
  IC50: 13.2 nM
[17]
  Kd: 0.23 nM
MOLM-13
  IC50: 39 nM
[18]
  IC50: < 10 nM
HL-60
  IC50: 334 nM
[5]
  inhibition at 0.123 µM: > 80%
[19]
  IC50: 17.5 nM
[20]
  IC50: 2.67 nM
[21]
  half-life: 51 min
[7]
  IC50: 3.33 nM
[22]
  IC50: 0.54 nM
[8]
  inhibition: > 80%
[23]
  Kd: 1.3 nM
CDK2/Cyclin A2
  IC50: < 10 nM
[24]
  IC50: 7.35 nM
CDK6/cyclin D1
  IC50: < 10 nM
[25]
  Kd: 7.01 nM
[26]
  microsomal CLint: 13.6 µL/min/mg
[3]
  IC50: 0.6 nM

## Cc1nc(Nc2c[nH]nc2C(=O)Nc2ccc(CN3CCN(C)CC3)cc2)c2cc(C(C)C)sc2n1
MV4-11
  IC50: 65 nM
[5]
  inhibition at 0.123 µM: > 80%
[6]
  IC50: 21.5 nM
[7]
  IC50: 19.2 nM
[8]
  inhibition: > 80%
[3]
  IC50: 0.73 nM

## Cc1nc(Nc2c[nH]nc2C(=O)Nc2ccc(N3CCOCC3)cc2)c2ccsc2n1
[1]
  Activity: 83.1%
MV4-11
  IC50: 33 nM
[2]
  activity at 0.123 µM: 78.8%
[3]
  IC50: 3.8 nM

## CCc1nc(Nc2c[nH]nc2C(=O)Nc2ccc(N3CCNCC3)cc2)c2ccsc2n1
[1]
  Activity: 87%
MV4-11
  IC50: 65 nM
[2]
  activity at 0.123 µM: 86.6%
[3]
  IC50: 3.42 nM

## CC(C)c1nc(Nc2c[nH]nc2C(=O)Nc2ccc(N3CCNCC3)cc2)c2ccsc2n1
[1]
  Activity: 93.5%
MV4-11
  IC50: 57 nM
[2]
  activity at 0.123 µM: 101%
[3]
  IC50: 11.3 nM
